Like-named read-outs stand apart in the source and are kept apart here.
Key:
Assay type in all cases: cell-based
[1] = test system: Staphylococcus aureus ATTC 6538; assay: Antimicrobial disk susceptibility test (CLSI M2-A9), S. aureus
Procedure: (§1) Test for the antimicrobial activity of the novel compounds may be performed according to the standards of Clinical and Laboratory Standards Institute, Performance Standards for Antimicrobial Disk Susceptibility Tests; approved Standard; M2-A), vol. 26 NO. 1 9th ed.
as §1, with “A test for” for “Test for”, “compounds were” for “compounds may be”, “ed. The samples were dissolved in 10 ml of sterile Milli-Q water by magnetic stirring overnight at 20° C.” for “ed.”
(§2) Two doses of the samples were tested in duplicate, a) and b). The size of the inhibition zones were measured in mm after incubation.

[2] = test system: Escherichia coli ATCC 8739; assay: Antimicrobial disk susceptibility test (CLSI M2-A9), E. coli
Procedure: as §1
as §1, with “A test for” for “Test for”, “compounds were” for “compounds may be”, “ed. The samples were dissolved in 10 ml of sterile Milli-Q water by magnetic stirring overnight at 20° C.” for “ed.”
as §2

[3] = test system: Pseudomonas aeruginosa ATCC 9027; assay: Antimicrobial disk susceptibility test (CLSI M2-A9), P. aeruginosa
Procedure: as §1
as §1, with “A test for” for “Test for”, “compounds were” for “compounds may be”, “ed. The samples were dissolved in 10 ml of sterile Milli-Q water by magnetic stirring overnight at 20° C.” for “ed.”
as §2

[4] = test system: Klebsiella pneumonia ATCC 35657; assay: Antimicrobial disk susceptibility test (CLSI M2-A9), K. pneumonia
Procedure: as §1
as §1, with “A test for” for “Test for”, “compounds were” for “compounds may be”, “ed. The samples were dissolved in 10 ml of sterile Milli-Q water by magnetic stirring overnight at 20° C.” for “ed.”
as §2

[5] = Staphylococcus aureus, ATTC6538; 5 μg/disk, duplicate a); read-out: size of the inhibition zone, S. aureus a)
[6] = Staphylococcus aureus, ATTC6538; 5 μg/disk, duplicate b); read-out: size of the inhibition zone, S. aureus b)
[7] = Staphylococcus aureus, ATTC6538; 10 μg/disk, duplicate a); read-out: size of the inhibition zone, S. aureus a)
[8] = Staphylococcus aureus, ATTC6538; 10 μg/disk, duplicate b); read-out: size of the inhibition zone, S. aureus b)
[9] = Escherichia coli, ATCC8739; 5 μg/disk, duplicate a); read-out: size of the inhibition zone, E. coli a)
[10] = Escherichia coli, ATCC8739; 5 μg/disk, duplicate b); read-out: size of the inhibition zone, E. coli b)
[11] = Escherichia coli, ATCC8739; 10 μg/disk, duplicate a); read-out: size of the inhibition zone, E. coli a)
[12] = Escherichia coli, ATCC8739; 10 μg/disk, duplicate b); read-out: size of the inhibition zone, E. coli b)
[13] = Pseudomonas aeruginosa, ATCC9027; 5 μg/disk, duplicate a); read-out: size of the inhibition zone, P. aeruginosa a)
[14] = Pseudomonas aeruginosa, ATCC9027; 5 μg/disk, duplicate b); read-out: size of the inhibition zone, P. aeruginosa b)
[15] = Pseudomonas aeruginosa, ATCC9027; 10 μg/disk, duplicate a); read-out: size of the inhibition zone, P. aeruginosa a)
[16] = Pseudomonas aeruginosa, ATCC9027; 10 μg/disk, duplicate b); read-out: size of the inhibition zone, P. aeruginosa b)
[17] = Klebsiella pneumoniae, ATCC35657; 5 μg/disk, duplicate a); read-out: size of the inhibition zone, K. pneumonia a)
[18] = Klebsiella pneumoniae, ATCC35657; 5 μg/disk, duplicate b); read-out: size of the inhibition zone, K. pneumonia b)
[19] = Klebsiella pneumoniae, ATCC35657; 10 μg/disk, duplicate a); read-out: size of the inhibition zone, K. pneumonia a)
[20] = Klebsiella pneumoniae, ATCC35657; 10 μg/disk, duplicate b); read-out: size of the inhibition zone, K. pneumonia b)

| Structure (SMILES) | zone of inhibition at 5 µg/disc [1, 5] [mm] | zone of inhibition at 5 µg/disc [1, 6] [mm] | zone of inhibition at 10 µg/disc [1, 7] [mm] | zone of inhibition at 10 µg/disc [1, 8] [mm] | zone of inhibition at 5 µg/disc [2, 9] [mm] | zone of inhibition at 5 µg/disc [2, 10] [mm] | zone of inhibition at 10 µg/disc [2, 11] [mm] | zone of inhibition at 10 µg/disc [2, 12] [mm] | zone of inhibition at 5 µg/disc [3, 13] [mm] | zone of inhibition at 5 µg/disc [3, 14] [mm] | zone of inhibition at 10 µg/disc [3, 15] [mm] | zone of inhibition at 10 µg/disc [3, 16] [mm] | zone of inhibition at 5 µg/disc [4, 17] [mm] | zone of inhibition at 5 µg/disc [4, 18] [mm] | zone of inhibition at 10 µg/disc [4, 19] [mm] | zone of inhibition at 10 µg/disc [4, 20] [mm] | size of the inhibition zone, S. aureus a) ([1]; 5 μg/disk, duplicate a)) [mm] | size of the inhibition zone, S. aureus b) ([1]; 5 μg/disk, duplicate b)) [mm] | size of the inhibition zone, S. aureus a) ([1]; 10 μg/disk, duplicate a)) [mm] | size of the inhibition zone, S. aureus b) ([1]; 10 μg/disk, duplicate b)) [mm] | other results |
| --- | --- | --- | --- | --- | --- | --- | --- | --- | --- | --- | --- | --- | --- | --- | --- | --- | --- | --- | --- | --- | --- |
| CC[C@H]1OC(=O)[C@H](C)C(O[C@H]2C[C@@](C)(OC)[C@@H](O)[C@H](C)O2)[C@H](C)[C@@H](OC2O[C@H](C)C[C@H](N(C)C)[C@H]2C)[C@](C)(O)C[C@@H](C)CN(C)[C@H](C)[C@@H](O)[C@]1(C)O (stereo partly drawn) [PP001] | < 1 | < 1 | < 1 | < 1 | < 1 | < 1 | < 1 | < 1 | < 1 | < 1 | < 1 | < 1 | < 1 | < 1 | < 1 | < 1 | – | – | – | – | – |
| CC[C@H]1OC(=O)[C@H](C)C(O[C@H]2C[C@@](C)(OC)[C@@H](C)[C@H](C)O2)[C@H](C)[C@@H](OC2O[C@H](C)C[C@H](N(C)C)[C@H]2O)[C@](C)(O)C[C@@H](C)CN(C)[C@H](C)[C@@H](O)[C@]1(C)O (stereo partly drawn) [PP002] | < 1 | < 1 | < 1 | < 1 | < 1 | < 1 | < 1 | < 1 | < 1 | < 1 | < 1 | < 1 | < 1 | < 1 | < 1 | < 1 | – | – | – | – | – |
| CCC1OC(=O)C(C)C(OC2CC(C)(OC)C(C)C(C)O2)C(C)C(OC2OC(C)CC(N(C)C)C2C)C(C)(O)CC(C)CN(C)C(C)C(O)C1(C)O (stereo not drawn) [PP003] | – | – | – | – | – | – | – | – | – | – | – | – | – | – | – | – | <1 | <1 | <1 | <1 | size of the inhibition zone, E. coli a) ([2]; 5 μg/disk, duplicate a)): <1 mm; size of the inhibition zone, E. coli b) ([2]; 5 μg/disk, duplicate b)): <1 mm; size of the inhibition zone, E. coli a) ([2]; 10 μg/disk, duplicate a)): <1 mm; size of the inhibition zone, E. coli b) ([2]; 10 μg/disk, duplicate b)): <1 mm; size of the inhibition zone, P. aeruginosa a) ([3]; 5 μg/disk, duplicate a)): <1 mm; size of the inhibition zone, P. aeruginosa b) ([3]; 5 μg/disk, duplicate b)): <1 mm; size of the inhibition zone, P. aeruginosa a) ([3]; 10 μg/disk, duplicate a)): <1 mm; size of the inhibition zone, P. aeruginosa b) ([3]; 10 μg/disk, duplicate b)): <1 mm; size of the inhibition zone, K. pneumonia a) ([4]; 5 μg/disk, duplicate a)): <1 mm; size of the inhibition zone, K. pneumonia b) ([4]; 5 μg/disk, duplicate b)): <1 mm; size of the inhibition zone, K. pneumonia a) ([4]; 10 μg/disk, duplicate a)): <1 mm; size of the inhibition zone, K. pneumonia b) ([4]; 10 μg/disk, duplicate b)): <1 mm |
| CC[C@H]1OC(=O)[C@H](C)C(O[C@H]2C[C@@](C)(OC)C[C@H](C)O2)[C@H](C)[C@@H](OC2O[C@H](C)C[C@H](N(C)C)[C@H]2O)[C@](C)(O)C[C@@H](C)CN(C)[C@H](C)[C@@H](O)[C@]1(C)O (stereo partly drawn) [PP004] | < 1 | < 1 | < 1 | < 1 | < 1 | < 1 | < 1 | < 1 | < 1 | < 1 | < 1 | < 1 | < 1 | < 1 | < 1 | < 1 | – | – | – | – | – |
| CC[C@H]1OC(=O)[C@H](C)C(O[C@H]2C[C@@](C)(OC)[C@@H](O)[C@H](C)O2)[C@H](C)[C@@H](OC2C[C@@H](N(C)C)C[C@@H](C)O2)[C@](C)(O)C[C@@H](C)CN(C)[C@H](C)[C@@H](O)[C@]1(C)O (stereo partly drawn) [PP005] | < 1 | < 1 | < 1 | < 1 | < 1 | < 1 | < 1 | < 1 | < 1 | < 1 | < 1 | < 1 | < 1 | < 1 | < 1 | < 1 | – | – | – | – | – |
| CCC1OC(=O)C(C)C(OC2CC(C)(OC)CC(C)O2)C(C)C(OC2CC(N(C)C)CC(C)O2)C(C)(O)CC(C)CN(C)C(C)C(O)C1(C)O (stereo not drawn) [PP006] | – | – | – | – | – | – | – | – | – | – | – | – | – | – | – | – | <1 | <1 | <1 | <1 | size of the inhibition zone, E. coli a) ([2]; 5 μg/disk, duplicate a)): <1 mm; size of the inhibition zone, E. coli b) ([2]; 5 μg/disk, duplicate b)): <1 mm; size of the inhibition zone, E. coli a) ([2]; 10 μg/disk, duplicate a)): <1 mm; size of the inhibition zone, E. coli b) ([2]; 10 μg/disk, duplicate b)): <1 mm; size of the inhibition zone, P. aeruginosa a) ([3]; 5 μg/disk, duplicate a)): <1 mm; size of the inhibition zone, P. aeruginosa b) ([3]; 5 μg/disk, duplicate b)): <1 mm; size of the inhibition zone, P. aeruginosa a) ([3]; 10 μg/disk, duplicate a)): <1 mm; size of the inhibition zone, P. aeruginosa b) ([3]; 10 μg/disk, duplicate b)): <1 mm; size of the inhibition zone, K. pneumonia a) ([4]; 5 μg/disk, duplicate a)): <1 mm; size of the inhibition zone, K. pneumonia b) ([4]; 5 μg/disk, duplicate b)): <1 mm; size of the inhibition zone, K. pneumonia a) ([4]; 10 μg/disk, duplicate a)): <1 mm; size of the inhibition zone, K. pneumonia b) ([4]; 10 μg/disk, duplicate b)): <1 mm |

— US20160031925A1, “AZITHROMYCIN ANTIMICROBIAL DERIVATIVES WITH NON-ANTIBIOTIC PHARMACEUTICAL EFFECT” (priority 2013, published 2016)
